# Data taken from ChEMBL document CHEMBL3885881, “DrugMatrix”.
# Species: Rattus norvegicus
# Experiment: DrugMatrix - Regimen: Daily Repeat
# Type: toxicity, organism-based, Sprague-Dawley
# Parameters: regimen Daily Repeat, gender Male, age 6-8 weeks
# Settings: in vivo, po, route oral GAVAGE, […]; for ABSOLUTE BASOPHIL / ABSOLUTE EOSINOPHIL / ABSOLUTE LYMPHOCYTE / ABSOLUTE MONOCYTE / ABSOLUTE SEGMENTED NEUTROPHIL / BASOPHIL / EOSINOPHIL / ERYTHROCYTE COUNT / HEMATOCRIT / HEMOGLOBIN / LEUKOCYTE COUNT / LYMPHOCYTE / MEAN CORPUSCULAR HEMOGLOBIN / MEAN CORPUSCULAR HEMOGLOBIN CONCENTRATION / MEAN CORPUSCULAR VOLUME / MONOCYTE / NEUTROPHIL / NUCLEATED RED BLOOD CELLS / PLATELET COUNT: tissue Blood; for ALANINE AMINOTRANSFERASE / ALBUMIN / ALKALINE PHOSPHATASE / ASPARTATE AMINOTRANSFERASE / BLOOD UREA NITROGEN / CARBON DIOXIDE / CHLORIDE / CHOLESTEROL / CREATINE PHOSPHOKINASE / CREATININE / GLUCOSE / LACTATE DEHYDROGENASE / LIPASE / PHOSPHORUS / POTASSIUM / SODIUM / TOTAL BILIRUBIN / TOTAL PROTEIN / URIC ACID: tissue Plasma
# [1] = 5 mg/kg, 120 h, dose level Low, time 5 day
# [2] = 13 mg/kg, 72 h, dose level High, time 3 day
# [3] = 13 mg/kg, 120 h, dose level High, time 5 day
compound,measurement,setting,value
O=c1oc2ccccc2c(O)c1Cc1c(O)c2ccccc2oc1=O [DICUMAROL],ABSOLUTE BASOPHIL,[1],0 CELLS/uL
same,ABSOLUTE EOSINOPHIL,[1],23.33 CELLS/uL
same,ABSOLUTE LYMPHOCYTE,[1],6534.33 CELLS/uL
same,ABSOLUTE MONOCYTE,[1],0 CELLS/uL
same,ABSOLUTE SEGMENTED NEUTROPHIL,[1],809 CELLS/uL
same,BASOPHIL,[1],0%
same,EOSINOPHIL,[1],0.33%
same,ERYTHROCYTE COUNT,[1],5.38 x10E6/uL
same,HEMATOCRIT,[1],33.9%
same,HEMOGLOBIN,[1],13.03 G/DL
same,LEUKOCYTE COUNT,[1],7.37 x10E3/uL
same,LYMPHOCYTE,[1],88.67%
same,MEAN CORPUSCULAR HEMOGLOBIN,[1],24.27 pg
same,MEAN CORPUSCULAR HEMOGLOBIN CONCENTRATION,[1],38.47 G/DL
same,MEAN CORPUSCULAR VOLUME,[1],63 fL
same,MONOCYTE,[1],0%
same,NEUTROPHIL,[1],11%
same,NUCLEATED RED BLOOD CELLS,[1],0 /100WBC
same,PLATELET COUNT,[1],1062 x10E3/uL
same,ALANINE AMINOTRANSFERASE,[1],70.33 u/L
same,ALBUMIN,[1],4.17 G/DL
same,ALKALINE PHOSPHATASE,[1],492.33 u/L
same,ASPARTATE AMINOTRANSFERASE,[1],90.67 u/L
same,BLOOD UREA NITROGEN,[1],13.67 mg/dL
same,CARBON DIOXIDE,[1],31.67 mmol/L
same,CHLORIDE,[1],100 MEQ/L
same,CHOLESTEROL,[1],66.67 mg/dL
same,CREATINE PHOSPHOKINASE,[1],491.67 u/L
same,CREATININE,[1],0.15 mg/dL
same,GLUCOSE,[1],160.33 mg/dL
same,LACTATE DEHYDROGENASE,[1],134.33 u/L
same,LIPASE,[1],9.33 u/L
same,PHOSPHORUS,[1],9.47 mg/dL
same,POTASSIUM,[1],5.06 MEQ/L
same,SODIUM,[1],142.1 MEQ/L
same,TOTAL BILIRUBIN,[1],0.17 mg/dL
same,TOTAL PROTEIN,[1],6.07 G/DL
same,URIC ACID,[1],0.43 mg/dL
same,ABSOLUTE BASOPHIL,[2],0 CELLS/uL
same,ABSOLUTE EOSINOPHIL,[2],43.33 CELLS/uL
same,ABSOLUTE LYMPHOCYTE,[2],9740.67 CELLS/uL
same,ABSOLUTE MONOCYTE,[2],39.67 CELLS/uL
same,ABSOLUTE SEGMENTED NEUTROPHIL,[2],443 CELLS/uL
same,BASOPHIL,[2],0%
same,EOSINOPHIL,[2],0.33%
same,ERYTHROCYTE COUNT,[2],5.24 x10E6/uL
same,HEMATOCRIT,[2],32.97%
same,HEMOGLOBIN,[2],12.9 G/DL
same,LEUKOCYTE COUNT,[2],10.27 x10E3/uL
same,LYMPHOCYTE,[2],95%
same,MEAN CORPUSCULAR HEMOGLOBIN,[2],24.7 pg
same,MEAN CORPUSCULAR HEMOGLOBIN CONCENTRATION,[2],39.13 G/DL
same,MEAN CORPUSCULAR VOLUME,[2],63.17 fL
same,MONOCYTE,[2],0.33%
same,NEUTROPHIL,[2],4.33%
same,NUCLEATED RED BLOOD CELLS,[2],0 /100WBC
same,PLATELET COUNT,[2],923.67 x10E3/uL
same,ALANINE AMINOTRANSFERASE,[2],65 u/L
same,ALBUMIN,[2],3.83 G/DL
same,ALKALINE PHOSPHATASE,[2],374.33 u/L
same,ASPARTATE AMINOTRANSFERASE,[2],87.33 u/L
same,BLOOD UREA NITROGEN,[2],11 mg/dL
same,CARBON DIOXIDE,[2],35.33 mmol/L
same,CHLORIDE,[2],98 MEQ/L
same,CHOLESTEROL,[2],72 mg/dL
same,CREATINE PHOSPHOKINASE,[2],494.33 u/L
same,CREATININE,[2],0.14 mg/dL
same,GLUCOSE,[2],143.67 mg/dL
same,LACTATE DEHYDROGENASE,[2],159.67 u/L
same,LIPASE,[2],9.33 u/L
same,PHOSPHORUS,[2],11.1 mg/dL
same,POTASSIUM,[2],6.17 MEQ/L
same,SODIUM,[2],142.53 MEQ/L
same,TOTAL BILIRUBIN,[2],0.17 mg/dL
same,TOTAL PROTEIN,[2],5.83 G/DL
same,URIC ACID,[2],0.5 mg/dL
same,ABSOLUTE BASOPHIL,[3],0 CELLS/uL
same,ABSOLUTE EOSINOPHIL,[3],0 CELLS/uL
same,ABSOLUTE LYMPHOCYTE,[3],5152 CELLS/uL
same,ABSOLUTE MONOCYTE,[3],45 CELLS/uL
same,ABSOLUTE SEGMENTED NEUTROPHIL,[3],403 CELLS/uL
same,BASOPHIL,[3],0%
same,EOSINOPHIL,[3],0%
same,ERYTHROCYTE COUNT,[3],5.48 x10E6/uL
same,HEMATOCRIT,[3],33.3%
same,HEMOGLOBIN,[3],12.65 G/DL
same,LEUKOCYTE COUNT,[3],5.6 x10E3/uL
same,LYMPHOCYTE,[3],92%
same,MEAN CORPUSCULAR HEMOGLOBIN,[3],23.1 pg
same,MEAN CORPUSCULAR HEMOGLOBIN CONCENTRATION,[3],38 G/DL
same,MEAN CORPUSCULAR VOLUME,[3],60.75 fL
same,MONOCYTE,[3],1%
same,NEUTROPHIL,[3],7%
same,NUCLEATED RED BLOOD CELLS,[3],1 /100WBC
same,PLATELET COUNT,[3],1032 x10E3/uL
same,ALANINE AMINOTRANSFERASE,[3],67.5 u/L
same,ALBUMIN,[3],3.85 G/DL
same,ALKALINE PHOSPHATASE,[3],329.5 u/L
same,ASPARTATE AMINOTRANSFERASE,[3],96 u/L
same,BLOOD UREA NITROGEN,[3],13 mg/dL
same,CARBON DIOXIDE,[3],32.5 mmol/L
same,CHLORIDE,[3],100 MEQ/L
same,CHOLESTEROL,[3],64 mg/dL
same,CREATINE PHOSPHOKINASE,[3],628 u/L
same,CREATININE,[3],0.18 mg/dL
same,GLUCOSE,[3],150.5 mg/dL
same,LACTATE DEHYDROGENASE,[3],133 u/L
same,LIPASE,[3],11 u/L
same,PHOSPHORUS,[3],9.75 mg/dL
same,POTASSIUM,[3],5.09 MEQ/L
same,SODIUM,[3],145.4 MEQ/L
same,TOTAL BILIRUBIN,[3],0.15 mg/dL
same,TOTAL PROTEIN,[3],6 G/DL
same,URIC ACID,[3],0.45 mg/dL
